Structures can show the parent of a compound that is named as a salt.
Legend:
SK-N-SH cells = test: SK-N-SH subcutaneous tumor model in mice: tumor volume and tumor growth inhibition; format: in vivo, mouse; conditions: for tumor inhibition rate: SK-N-SH subcutaneous tumor model; for Tumor volume, mean ± standard error: TMZ 20 mg/kg PO, irinotecan hydrochloride or PEG-irinotecan 30 mg/kg IV
Procedure: SK-N-SH cells were cultured in an EMEM medium containing 10% heat-inactivated fetal bovine serum, 100 μg/mL penicillin, and 100 μg/mL streptomycin (incubator condition: 37° C., 5% CO 2). The cells were subcultured twice a week. The cells in the exponential phase were collected, and counted grafting.
2.2 Tumor grafting and grouping 100 μL of a mixture of EMEM and 50% matrigel containing 5×10^6 SK-N-SH cells was grafted subcutaneously at the right abdomen of a mouse, and the tumor growth was observed. 80 animals were randomized according to tumor volume (103 mm 3) by using the grouping randomization method in Excel. […] Each group had 10 tumor-bearing mice.
Tumor volume was measured twice a week using a vernier caliper.
(§1) The body weight and tumor volume were compared by using two-way ANOVA analysis. All data were analyzed using GraphPad Prism 5. p<0.05 indicates statistical significance.

[1] = Body weight of tumor-bearing mice during treatment; format: in vivo, mouse; conditions: TMZ 20 mg/kg PO, irinotecan hydrochloride or PEG-irinotecan 30 mg/kg IV
Procedure: All procedures related to animal handling, care, and treatment in this study were performed according to the assessment of the Institutional Animal Care and Use Committee (IACUC) approved by Shanghai BioDuro Co., Ltd. (the CRO) and followed guidelines of the Association for Assessment and Accreditation of Laboratory Animal Care (AAALAC, accreditation number: 001516). In routine monitoring, the animals were examined that whether any adverse effects of tumor growth and/or treatment on normal behavior were present, such as motility, food and water consumption (by observation only), and body weight gain/loss (the body weight was measured twice a week during the pre-administration phase and daily during the administration phase), eye/hair matting and any other abnormalities.
as §1

SMILES	1 − T/C (tumor inhibition rate TGI) (SK-N-SH cells; D 34) [%]	tumor inhibition rate (SK-N-SH cells) [%]	TV (b: Tumor volume on day 34) (SK-N-SH cells; Table 5, day 34) [mm^3]	Tumor volume, mean ± standard error (SK-N-SH cells; day 27) [mm^3]	Tumor volume, mean ± standard error (SK-N-SH cells; day 31) [mm^3]	Tumor volume, mean ± standard error (SK-N-SH cells; day 34)	Tumor volume, mean ± standard error (SK-N-SH cells; day 38)	Tumor volume, mean ± standard error (SK-N-SH cells; day 41)	Animal body weight, mean ± standard error ([1]; day 24) [g]	Animal body weight, mean ± standard error ([1]; day 27) [g]	Animal body weight, mean ± standard error ([1]; day 31) [g]	Animal body weight, mean ± standard error ([1]; day 34)	Animal body weight, mean ± standard error ([1]; day 38)	Animal body weight, mean ± standard error ([1]; day 41)	T/C (relative tumor proliferation rate) (SK-N-SH cells; D 34) [%]
Cn1nnc2c(C(N)=O)ncn2c1=O [Temozolomide]	25.04	25.0	1827.5 ± 262.2	462.9 ± 67.1	1071 ± 144.9	1827.5 ± 262.2 (n = 9) mm^3	2179.6 ± 209.6 (n = 5) mm^3	3004.1 ± 100.8 (n = 2) mm^3	21.7 ± 0.4	21.5 ± 0.5	22 ± 0.6	23.7 ± 0.7 (n = 9) g	22.5 ± 0.5 (n = 5) g	23.3 ± 1.1 (n = 2) g	–
CCc1c2c(nc3ccc(OC(=O)N4CCC(N5CCCCC5)CC4)cc13)-c1cc3c(c(=O)n1C2)COC(=O)[C@]3(O)CC [Irinotecan hydrochloride]	30.99	31.0	–	–	–	–	–	–	22 ± 0.4	21.8 ± 0.5	23 ± 0.5	24.3 ± 0.5 g	23.2 ± 0.4 (n = 8) g	21 (n = 1) g	69.01

Reference: patent publication US20230405132A1, “ANTITUMOR PHARMACEUTICAL COMPOSITION AND USE THEREOF” (JENKEM TECHNOLOGY CO., LTD. (TIANJIN), priority 2020, published 2023)
